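Tested at 5 concentrations; 48 h exposure; 96-well plates; endpoints linearly interpolated, else capped at highest concentration. Here, GI50 denotes the concentration required for 50% inhibition of growth. TGI denotes the concentration required for complete inhibition of growth.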

The subject of the first assay is T-47D breast. Nature of the assay: DTP human tumour cell line panel, 48 h.
In the case of `CC1=C2[C@@H](CC1)[C@]1(C)O[C@@](c3ccccc3)(C[C@H]1OC(=O)CO)[C@H]2OC(=O)/C=C/c1ccccc1`, the GI50 (commonly the concentration that inhibits growth by half) was 9.37 µM and the TGI (as a rule, the concentration giving total growth inhibition) was determined as 48.8 µM.
As to `CCCN(CCS(C)(=O)=O)Cc1ccc(-c2ccc3ncnc(Nc4ccc(OCc5cccc(F)c5)c(Cl)c4)c3c2)o1`, the GI50 is 1.82 µM and the TGI was 24.7 µM.
For `CCc1ccc2c(c1)N(CCO)C1=C(C(=O)OC1)C2c1cccc(Br)c1` (stereo not given), in that order: 0.54 µM and 19.6 µM.
For `CO/N=C(\COc1ccc2c(c1)[nH]c1ccccc12)c1ccc(F)cc1`, in that order: greater than 100 µM and greater than 100 µM.
Take `COc1ccc(-c2nc(Nc3cc(C)[nH]n3)c3ccccc3n2)cc1`: the GI50 is 1.59 µM and the TGI is greater than 25.6 µM.
As to `O=c1[nH]c(=O)n(C2CC(O)C(COP(=O)(OCc3ccc([N+](=O)[O-])o3)N(CCCCCl)CC(O)CO)O2)cc1F` (stereo not given), the GI50 was greater than 21.4 µM and the concentration for total growth inhibition (TGI) was greater than 100 µM.
With `O=C1OC(=O)C(=C\c2ccc3c(c2)OCO3)/C1=C/c1ccc2c(c1)OCO2`, the concentration for total growth inhibition (TGI) is greater than 100 µM.
Take `CC(C)NCCCn1c(Sc2cc3c(cc2I)OCO3)nc2c(N)ncnc21`: the GI50 is 0.155 µM and the TGI was greater than 100 µM.
On to `O=C(/C=C\c1cccc([N+](=O)[O-])c1)/C=C/c1cccc([N+](=O)[O-])c1`, for which the GI50 was greater than 100 µM and the total growth inhibition concentration (TGI) was greater than 100 µM.
Regarding `CN1C(=O)N(C)C2C1NN=c1s/c(=C\c3ccc(C(F)(F)F)cc3)c(=O)n12` (stereo not given), the GI50 is 1.72 µM and the TGI was greater than 100 µM.
On the same counts, the results for `N#Cc1c(N2CCOCC2)nc(=S)[nH]c1-c1ccco1` are 1.3 µM and 5.91 µM.
`C[C@@H]1CN(Cc2ccc(F)cc2)[C@@H](C)CN1C(=O)c1cc2c(C(=O)C(=O)N(C)C)cn(C)c2cc1Cl`: the GI50 was 5.97 µM and the TGI was 65.6 µM.
In turn, `COc1ccccc1-c1cc(=O)c2cc(C)cnc2[nH]1` had a TGI greater than 100 µM.
Take `O=[N+]([O-])c1ccc(C=Cc2ccccc2)cc1.[C-]#[O+].[C-]#[O+].[C-]#[O+].[Cr]`: the GI50 is 4.19 µM and the TGI is greater than 100 µM.
In the case of `OCC1OC(n2cnc3c(N/N=C\c4ccccn4)ncnc32)C(O)C1O` (stereo not given), the GI50 was 0.282 µM and the concentration for total growth inhibition (TGI) came out at 21 µM.
For the compound `NNC(=O)CS(=O)(=O)Nc1ncccn1`, the total growth inhibition concentration (TGI) was greater than 100 µM.
As to `COc1cc2c(cc1OCCCn1c(-c3ccccn3)nc3ccccc31)N=C[C@@H]1CCCN1C2=O`, the GI50 was 2.14 µM and the total growth inhibition concentration (TGI) is 8.13 µM.
In the case of `c1cnn2ncc(-c3ccnc(NCCCN4CCOCC4)n3)c2c1`, the GI50 is 5.93 µM and the total growth inhibition concentration (TGI) was greater than 21.3 µM.
Turning to `O=C(Nc1ccc(OCc2nnc(-c3ccc(Cl)cc3)o2)c(F)c1)Nc1ccc(Cl)c(C(F)(F)F)c1`, the GI50 was 2.21 µM and the concentration for total growth inhibition (TGI) worked out at 8.66 µM.

Another assay has as its system MCF7 breast. Nature of the assay: DTP human tumour cell line panel, 48 h.
Take `CC1=C2[C@@H](CC1)[C@]1(C)O[C@@](c3ccccc3)(C[C@H]1OC(=O)CO)[C@H]2OC(=O)/C=C/c1ccccc1`: the GI50 is 8.86 µM and the total growth inhibition concentration (TGI) came to 32.1 µM.
With `CCCN(CCS(C)(=O)=O)Cc1ccc(-c2ccc3ncnc(Nc4ccc(OCc5cccc(F)c5)c(Cl)c4)c3c2)o1`, the GI50 was greater than 20.2 µM and the TGI is greater than 25 µM.
Take `CCc1ccc2c(c1)N(CCO)C1=C(C(=O)OC1)C2c1cccc(Br)c1` (stereo not given): the GI50 was 0.244 µM and the total growth inhibition concentration (TGI) was 1.68 µM.
For the compound `CO/N=C(\COc1ccc2c(c1)[nH]c1ccccc12)c1ccc(F)cc1`, the GI50 was greater than 100 µM and the TGI is greater than 100 µM.
Take `COc1ccc(-c2nc(Nc3cc(C)[nH]n3)c3ccccc3n2)cc1`: the GI50 is 1.71 µM and the total growth inhibition concentration (TGI) is 44.6 µM.
Take `O=c1[nH]c(=O)n(C2CC(O)C(COP(=O)(OCc3ccc([N+](=O)[O-])o3)N(CCCCCl)CC(O)CO)O2)cc1F` (stereo not given): the GI50 is less than 0.01 µM and the concentration for total growth inhibition (TGI) is greater than 100 µM.
As to `O=C1OC(=O)C(=C\c2ccc3c(c2)OCO3)/C1=C/c1ccc2c(c1)OCO2`, the concentration for total growth inhibition (TGI) is greater than 100 µM.
Regarding `CC(C)NCCCn1c(Sc2cc3c(cc2I)OCO3)nc2c(N)ncnc21`, the GI50 was 0.0453 µM and the TGI was greater than 100 µM.
For `O=C(/C=C\c1cccc([N+](=O)[O-])c1)/C=C/c1cccc([N+](=O)[O-])c1`, in that order: 0.655 µM and 6.68 µM.
For `CN1C(=O)N(C)C2C1NN=c1s/c(=C\c3ccc(C(F)(F)F)cc3)c(=O)n12` (stereo not given), the 50% growth inhibitory concentration (GI50) was 0.392 µM and the concentration for total growth inhibition (TGI) is greater than 100 µM.
Regarding `N#Cc1c(N2CCOCC2)nc(=S)[nH]c1-c1ccco1`, the GI50 is 2.12 µM and the TGI is greater than 100 µM.
Take `C[C@@H]1CN(Cc2ccc(F)cc2)[C@@H](C)CN1C(=O)c1cc2c(C(=O)C(=O)N(C)C)cn(C)c2cc1Cl`: the GI50 was 15.2 µM and the TGI turned out to be 37.3 µM.
With `COc1ccccc1-c1cc(=O)c2cc(C)cnc2[nH]1`, the concentration for total growth inhibition (TGI) is greater than 100 µM.
Take `O=[N+]([O-])c1ccc(C=Cc2ccccc2)cc1.[C-]#[O+].[C-]#[O+].[C-]#[O+].[Cr]`: the GI50 is 5.63 µM and the total growth inhibition concentration (TGI) is greater than 100 µM.
Take `OCC1OC(n2cnc3c(N/N=C\c4ccccn4)ncnc32)C(O)C1O` (stereo not given): the GI50 is 0.122 µM and the TGI is greater than 100 µM.
Compound `NNC(=O)CS(=O)(=O)Nc1ncccn1` yielded a total growth inhibition concentration (TGI) greater than 100 µM.
Take `COc1cc2c(cc1OCCCn1c(-c3ccccn3)nc3ccccc31)N=C[C@@H]1CCCN1C2=O`: the GI50 was 0.632 µM and the concentration for total growth inhibition (TGI) is 3.47 µM.
Take `c1cnn2ncc(-c3ccnc(NCCCN4CCOCC4)n3)c2c1`: the GI50 is 5.97 µM and the total growth inhibition concentration (TGI) is greater than 19 µM.
For `O=C(Nc1ccc(OCc2nnc(-c3ccc(Cl)cc3)o2)c(F)c1)Nc1ccc(Cl)c(C(F)(F)F)c1`, the GI50 was 1.92 µM and the TGI came out at 7.7 µM.

The record behind these values is PubChem BioAssay (NCI).
